The values that follow come from patent US9732091B2, “Tryptophanol-derived oxazoloisoindolinones: small-molecule P53 activators” (UNIVERSIDADE DO PORTO, priority 2013, dated 2017).

Structures are written as SMILES.

Data set [1] has as its target T1, human wt p53 (Homo sapiens, UniProt P04637).
T1 construct: expressed in transfected cells
The data set is described as follows: yeast-based assay, yeast cells expressing human wt p53 (growth by CFU counts, cell cycle, actin Western blot). On the procedure:
FIG. 1 illustrates that SLMP53-1 and SLMP53-2 increase the p53 effects in yeast. Yeast cells expressing human wt p53 and transformed with the empty vector (control yeast) were incubated in selective induction medium in the presence of 0.1-25 μM compound or DMSO only, for 42 hours. (A) Effect of 10 μM SLMP53-1 and SLMP53-2 on the p53-induced yeast growth inhibition. Results are plotted setting as one unit the p53-induced growth inhibition in the presence of DMSO only. Growth was estimated by colony-forming unit (CFU) counts. […] (B) Dose-response curve for SLMP53-1 in yeast cells expressing human p53 and control yeast. Cells were incubated in selective medium with 0.1-25 μM of SLMP53-1 or DMSO only. Results are plotted setting as 100% growth inhibition the number of CFU obtained in the presence of DMSO only. Data are mean±S.E.M. of three independent experiments (*P<0.05; unpaired Student's t-test). (C) Effect of SLMP53-1 and SLMP53-2 on p53-induced S-phase cell cycle arrest in yeast. Cell cycle phases were analyzed by flow cytometry using Sytox Green and quantified using ModFit LT software; quantification of cell cycle phases represent the mean values. (D) Increase of p53-induced actin protein expression levels by SLMP53-1 and SLMP53-2 in yeast expressing p53. Western Blot band intensity was quantified using Pgk1p as loading control (with Bio-Profile Bio-1D++ software).
Using a yeast-based screening approach, the chiral compounds SLMP53-1 and SLMP53-2 were identified as potential activators of wt p53, from a chemical library of tryptophanol-derived oxazoloisoindolinones with general formula (I) shown in FIG. 1, wherein X, R^1, R^2, R^3, R^4, R^5, R^6, R^7, R^8, R^9 and R^10 are as defined herein, as well as their stereoisomers, enantiomers, ra.cemates, tautomers thereof or mixtures thereof; or a pharmaceutically acceptable salt, solvate or prodrug thereof. In the yeast cell model, compounds SLMP53-1 and SLMP53-2 increased the previously reported (Coutinho et al. FEBS Lett. 2009, 583, 3582-3588) p53-induced growth inhibition (FIGS. 1A and B) and S-phase cell cycle arrest (FIG. 1C).
Background: A western blot detects proteins with antibodies after separation by electrophoresis.

Data set [2] deals with HCT116 p53^+/+. The data set is described as follows: SRB growth inhibition assay in HCT116 p53^+/+ colon carcinoma cells. Particulars: for GI50: HCT116 p53^+/+, 48 hours incubation, SRB, mean±S.E.M. Type of data set: cell-based, human. On the procedure: (§1) Tumor cells were plated at 5.0×10^3 cells/well in 96-well plates and incubated for 24 hours. Cells were then exposed to serial dilutions of SLMP53-1, CP-31398 or PRIMA-1 (from 1.85 to 150 μM). The effect of the compounds was analyzed following 48 hours incubation, using the sulforhodamine B (SRB) assay. The solvent DMSO corresponding to the maximum concentration used in these assays (0.025%) was included as control. The GI50 value, the concentration of compound that causes 50% growth inhibition, was calculated for the tested compounds. Results are the mean±S.E.M. of three independent experiments.

Data set [3] concerns HCT116 p53^−/−. The data set is described as follows: SRB growth inhibition assay in HCT116 p53^−/− colon carcinoma cells. Type of data set: cell-based, human. Particulars: 48 hours incubation, mean±S.E.M. On the procedure: as §1
For data set [4], the system named is MDA-MB-231 (p53R280K). The data set is described as follows: SRB growth inhibition assay in MDA-MB-231 breast cancer cells. Particulars: 48 hours incubation, mean±S.E.M. In kind it is cell-based, human. On the procedure:
as §1, with “7.5×10^3” for “5.0×10^3”, “incubation period,” for “incubation,”, “value, which is” for “value,”

The subject of data set [5] is HCT116 p53^+/+ cells. The data set is described as follows: cell cycle analysis by flow cytometry (propidium iodide), HCT116 p53^+/+. Type of data set: cell-based, human. Particulars: double GI50, 24 hours. The protocol:
FIG. 3 illustrates the effect of SLMP53-1 on cell cycle progression of HCT116 p53^+/+ cells. Cell cycle phases were analyzed by flow cytometry using propidium iodide and quantified using ModFit LT software (Verity Software House Inc., Topsham, USA). Effect of compounds (double GI50) was analyzed after 24 hours treatment. Histograms represent one of two independent experiments; quantification of cell cycle phases represents the mean±S.E.M. of two independent experiments.
Background: In flow cytometry, cells or beads pass a laser one at a time.

The test system of data set [6] is HCT116 p53^+/+ cells. Put plainly: apoptosis by flow cytometry (FITC-Annexin V and propidium iodide), HCT116 p53^+/+. In kind it is cell-based, human. To be noted: GI50 and double GI50, 24 hours. On the procedure: Apoptosis was analyzed by flow cytometry using FITC-Annexin V and propidium iodide. The effect of compounds was analyzed after 24 hours treatment using the concentration of GI50 and double GI50. Histograms represent one of two independent experiments; quantification of cells in apoptosis represents the mean±S.E.M. of two independent experiments.

Data set [7] deals with MDA-MB-231 cells. The data set is described as follows: apoptosis by flow cytometry (FITC-Annexin V and propidium iodide), MDA-MB-231. Type of data set: cell-based, human. Particulars: GI50, 24 hours. On the procedure:
Apoptosis was analyzed by flow cytometry using FITC-Annexin V and propidium iodide. The effect of compounds was analyzed after 24 hours treatment using the concentration of GI50. Histograms represent one of two independent experiments; quantification of cells in apoptosis represents the mean±S.E.M. of two independent experiments.

For data set [8] the following is noted: Rippin et al. 2002; Jonhson et al. 2011; cited from earlier work.
Setting [9] is: HCT116 p53^+/+ vs HCT116 p53^−/−.

T1 sequence (P04637 whole entry): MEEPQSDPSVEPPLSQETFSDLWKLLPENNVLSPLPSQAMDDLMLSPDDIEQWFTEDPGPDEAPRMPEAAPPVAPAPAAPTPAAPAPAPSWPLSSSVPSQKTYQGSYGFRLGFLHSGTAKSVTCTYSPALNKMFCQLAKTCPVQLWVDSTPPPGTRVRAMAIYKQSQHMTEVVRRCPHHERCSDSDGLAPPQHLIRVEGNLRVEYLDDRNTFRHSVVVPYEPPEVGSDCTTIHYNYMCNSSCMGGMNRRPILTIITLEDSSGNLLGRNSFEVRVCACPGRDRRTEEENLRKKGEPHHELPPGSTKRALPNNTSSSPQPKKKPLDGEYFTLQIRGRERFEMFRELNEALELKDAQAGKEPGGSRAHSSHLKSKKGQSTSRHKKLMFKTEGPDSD

In the case of `C[C@@]12OC[C@@H](Cc3c[nH]c4ccccc34)N1C(=O)c1ccccc12` [SLMP53-2], the p53-induced growth inhibition entry in data set [1] (yeast expressing human wt p53, 10 μM, 42 hours, vs DMSO only) is “increased”. Further, the “p53-induced S-phase cell cycle arrest” value in data set [1] (yeast expressing human wt p53, flow cytometry) was “increased”. In addition, in data set [1] (yeast expressing p53, Western blot, vs DMSO only), the actin protein levels entry is listed as “increased the actin protein levels”.

On to `COc1ccc(/C=C/c2nc(NCCCN(C)C)c3ccccc3n2)cc1` [CP-31398], for which the “GI50 in HCT116 p53^+/+ cells lower than in HCT116 p53^−/− cells” value in data set [2] (setting [9]) is 2 fold. In data set [2] (setting [9]), the “p53 dependence of anti-proliferative effect” value is reported as “p53-dependent anti-proliferative effect”. In addition, the GI50 in data set [2] was determined as 3.4 ± 0.1 µM; in data set [3], 7.3 ± 0.6 µM; in data set [4], 2.3 ± 0.9 µM. For the same molecule, the cell cycle progression entry in data set [5] is “G0/G1-phase cell arrest”. Besides, the apoptosis result in data set [6] and in data set [7] was “apoptotic cell death” each time. In addition, the “cytotoxic and genotoxic effects (reported)” value in data set [8] was “cytotoxic and genotoxic effects have been reported”.

Take `O=C1C2CCN(CC2)C1(CO)CO` [PRIMA-1]: in data set [2] (setting [9]), the “p53 dependence of anti-proliferative effect” value is “p53-independent”. Besides, the GI50 in data set [2] is 19.9 ± 4 µM; in data set [3], 13.1 ± 2 µM; in data set [4] it was 29.8 ± 3.1 µM. In addition, the apoptosis result in data set [7] is “apoptotic cell death”.

As usually defined, the GI50 is the concentration giving 50% growth inhibition. A low value points to greater sensitivity of the cells.
